Measurements: patent US20220087983A1, “ACTIVATING PYRUVATE KINASE R” (FORMA Therapeutics, Inc., priority 2020, published 2022)
Values joined by “and” are separate entries in the source; they are usually repeats but may differ in a detail not shown here. Identical values can stand only once.

Legend:
[1] = cited from earlier work
[2] = Phase 1: hematologic and hemolytic parameters in SCD patients; assay type: in vivo, human; conditions: blinded 300 mg Compound 1/placebo QD, individual patients Pt 1-3
Text: Laboratory changes relative to pretreatment for each pt in the MD cohort as of Jul. In 2 of 3 SCD MD-1 pts treated with Compound 1/placebo (currently blinded), Hb increased by >1 g/dL, % reticulocytes decreased, and markers of hemolysis were improved after 14 days of treatment (compared to pre-treatment levels). Hematologic parameters returned to pre-treatment levels 4 to 7 days post-treatment (data not shown) without clinical AEs. […]

Compound: CC(C)n1nccc1-c1ncccc1COc1cccc(O)c1C=O [voxelotor, 2-hydroxy-6-((2-(1-isopropyl-1H-pyrazol-5-yl)pyridin-3-yl)methoxy)benzaldehyde]
- steady state whole blood AUC higher in HbSC than HbSS genotype patients ([1]; HbSC n=11, HbSS n=220): 50%
- steady state whole blood Cmax higher in HbSC than HbSS genotype patients ([1]; HbSC n=11, HbSS n=220): 45%
- steady state plasma AUC higher in HbSC than HbSS genotype patients ([1]; human, in vivo): 23%
- steady state plasma Cmax higher in HbSC than HbSS genotype patients ([1]; human, in vivo): 15%
- increase of AUC in plasma with a high-fat, high-calorie meal ([1]; relative to fasted state): 42%
- increase of AUC in whole blood with a high-fat, high-calorie meal ([1]; relative to fasted state): 42%
- increase of Cmax in plasma with a high-fat, high-calorie meal ([1]; relative to fasted state): 95%
- increase of Cmax in whole blood with a high-fat, high-calorie meal ([1]; relative to fasted state): 45%

Compound: O=C([C@H](CO)c1ccccc1)N1CC2=C(C1)CN(S(=O)(=O)c1cnc3c(c1)OCCO3)C2 [Compound 1/Placebo]
- Hemoglobin ([2]; Day 7 (on Tx)): 7.9 g/dL and 8.8 g/dL
- Indirect Bilirubin ([2]; Day 7 (on Tx)): 2.5 mg/dL and 0.9 mg/dL and 0.8 mg/dL
- Reticulocytes, % ([2]; Day 7 (on Tx)): 6.8% and 5.8%
- Hemoglobin ([2]; Day 14/15 (EOT)): 7.5 g/dL and 9.2 g/dL
- Indirect Bilirubin ([2]; Day 14/15 (EOT)): 3.0 mg/dL and 0.8 mg/dL and 1.0 mg/dL
- Reticulocytes, % ([2]; Day 14/15 (EOT)): 0.8% and 4.2%
